This experiment deals with T1, Aromatic-L-amino-acid decarboxylase (Mus musculus, UniProt O88533).
T1 sequence (O88533 whole entry): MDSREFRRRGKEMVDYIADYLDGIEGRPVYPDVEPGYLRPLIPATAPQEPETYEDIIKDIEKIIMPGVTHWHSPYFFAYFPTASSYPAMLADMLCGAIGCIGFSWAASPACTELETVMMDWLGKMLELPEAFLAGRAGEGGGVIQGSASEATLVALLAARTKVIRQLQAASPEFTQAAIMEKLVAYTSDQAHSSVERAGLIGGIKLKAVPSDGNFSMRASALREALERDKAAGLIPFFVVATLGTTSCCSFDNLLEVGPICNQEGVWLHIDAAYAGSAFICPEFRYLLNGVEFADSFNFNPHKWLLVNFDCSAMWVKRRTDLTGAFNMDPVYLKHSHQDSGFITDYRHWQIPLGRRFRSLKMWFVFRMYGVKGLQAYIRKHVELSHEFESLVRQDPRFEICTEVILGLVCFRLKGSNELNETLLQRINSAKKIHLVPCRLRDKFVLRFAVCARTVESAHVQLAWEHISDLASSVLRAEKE
Put plainly: Dissociation constant (KI) was evaluated as inhibitor of murine liver aromatic L-amino acid decarboxylase (AADC).

Usually Ki stands for a dissociation constant, usually derived from enzyme kinetics or from competition with a known ligand. Read a high Ki as a looser hold on the target.

`N[C@@](CF)(Cc1c[nH]c2ccc(O)cc12)C(=O)O` displayed an inhibition constant Ki of 24.3 µM.

For the origin of these results see ChEMBL document CHEMBL1126580, “Enantiospecific syntheses of alpha-(fluoromethyl)tryptophan analogues: interactions with tryptophan hydroxylase and aromatic L-amino acid decarboxylase” (J Med Chem, 1993).
